Experimental data published in patent publication US10525159B2, “Liquid preparation for contact lenses comprising hydrolyzed hyaluronic acid derivative and cationic bactericide” (OPHTECS CORPORATION, priority 2016, dated 2020).

Legend:
both eyes of 15 subjects = experiment: Suppression of corneal staining: SPK (superficial punctate keratitis) score in subjects; type: in vivo; conditions: 50 ppm in solution A; 15 subjects (30 eyes); conclusion from the SPK score
[1] = Hydrophilicity of SCL by dynamic contact angle measurement (etafilcon A); type: physicochemical
Procedure: (§1) SCL having etafilcon A, senofilcon A or balafilcon A as a material was taken out from a blister pack. Moisture on SCL to be measured was wiped off twice with a paper waste cloth, and dien the contact angle was measured using a dynamic contact angle measuring apparatus (automatic contact angle meter DSA100 S manufactured by Krass Company). SCL was set on a sample stage of the dynamic contact angle measuring apparatus in such a manner that die concave surface of the SCL faced upward, and 2 μL of PBS was dropped After dropping, droplets were photographed with a camera after about 10 seconds, and the contact angle between the SCL surface and the droplet was calculated by analysis software.
Next, each SCL was immersed in a PBS solution containing 50 ppm of the hydrolyzed hyaluronic acid derivative. As a control test, each SCL was immersed in PBS. The SCLs were immersed in the respective solutions overnight, and then subjected to cycle treatment under the condition of immersion of the SCL in PBS for 8 hours in conformity to actual wear. The cycle treatment was repeated, and fir SCL 1 day after immersion and 13 days after immersion, the contact angle was calculated in die same manner as described above.
(§2) Further, each SCL was immersed in a PBS solution containing 50 ppm of Na hyaluronate instead of die hydrolyzed hyaluronic add derivative, and die contact angle was calculated in die same manner as in the case of the hydrolyzed hyaluronic acid derivative.

[2] = Hydrophilicity of SCL by dynamic contact angle measurement (balafilcon A); type: physicochemical; conditions: FIG. 7
Procedure: as §1
(§3) Next, each SCL was immersed in a PBS solution containing 50 ppm of the hydrolyzed hyaluronic acid derivative. As a control test, each SCL was immersed in PBS. […] The cycle treatment was repeated, and fir SCL 1 day after immersion and 13 days after immersion, the contact angle was calculated in die same manner as described above.
as §2

[3] = Hydrophilicity of SCL by dynamic contact angle measurement (senofilcon A); type: physicochemical; conditions: FIG. 9
Procedure: as §1, §3, §2

[4] = PBS containing 50 ppm, risk ratio of less than 5%

Substance: hydrolyzed alkyl (C12-13) glyceryl hyaluronate [hydrolyzed hyaluronic acid derivative]
- effect on occurrence of corneal staining (both eyes of 15 subjects): effect of suppressing occurrence of corneal staining
- contact angle as compared to SCL immersed in PBS, or PBS containing 50 ppm of Na hyaluronate ([1]; etafilcon A SCL, PBS containing 50 ppm, Mann-Whitney U test, FIG. 5): significantly smaller
- contact angle of SCL immersed for 13 days compared with 1 day ([1]; etafilcon A SCL, PBS containing 50 ppm, risk ratio of less than 5%, FIG. 5): significantly smaller
- contact angle as compared to Na hyaluronate ([1]; summary for all of the three kinds of SCL (etafilcon A, balafilcon A, senofilcon A)): smaller contact angle
- contact angle as compared to SCL immersed in PBS, or PBS containing 50 ppm of Na hyaluronate ([2]; Mann-Whitney U test): significantly smaller
- contact angle of SCL immersed for 13 days compared with 1 day [2, 4]: significantly smaller
- contact angle as compared to SCL immersed in PBS, or PBS containing 50 ppm of Na hyaluronate ([3]; Mann-Whitney U test): significantly smaller
- contact angle of SCL immersed for 13 days compared with 1 day [3, 4]: significantly smaller
